Measured values from US6897244B2, “Dihydronootkatone and tetrahydronootkatone as repellents to arthropods” (Board of Supervisors of Louisiana State University and …, priority 2002, dated 2005).
Entries after “also recorded” stand apart in the source; their conditions may differ.

Experiments:
[1] = system: salt marsh mosquitoes, Aedes vexans; experiment: Mosquito bites on arm treated topically with 5% solution, placed in mosquito cage; type: in vivo; conditions: for Number of Mosquito Bites in a 2 min Period: arm treated with 5 ml of 5% solution
Procedure: To test the repellence of tetrahydronootkatone on mosquitos, tetrahydronootkatone was dissolved in 70% isopropyl alcohol to a final concentration of 5%. This solution was used to topically apply to the arms of two male volunteers. Each volunteer cleaned each arm thoroughly with soap and water, and then wiped down each arm with 70% isopropyl alcohol. The right arm of each volunteer was treated with 5 ml of the 5% tetrahydronootkatone solution. The left arm served as a control. To test for mosquito repellence, each arm of a single volunteer was placed into a cage of freshly collected mosquitoes, about 100 mosquitos per cage. The mosquitoes were salt marsh mosquitoes, Aedes […]. After 2 min, the number of mosquito bites on each arm were counted. Tests were run at 5 min, 1 hr, 2 hr, and 3 hr after the initial application of tetrahydronootkatone.

[2] = system: biting midges (family Ceratopogonidae, genus Culicoides); experiment: Field test of 5% solution applied to faces against biting midges in a marsh; type: in vivo; conditions: 5% solution in 70% isopropyl alcohol applied to faces of two volunteers
Procedure: To test the repellence of tetrahydronootkatone on biting midges (family Ceratopogonidae, genus Culicoides), tetrahydronootkatone was dissolved in 70% isopropyl alcohol to a final concentration of 5%. This solution was used to topically apply to the faces of two adult male volunteers. […] The six males went into a southern Louisiana marsh, an area known for biting midges.

[3] = system: Formosan subterranean termites; experiment: Petri dish treated/untreated sand bioassay for repelling activity against termites; type: in vivo, Coptotermes formosanus; parameters: key to percent of termites on untreated sand vs expected value of 50% (Chi-Square, p≦0.05): “−” indicates the test was not significantly different from the expected value; “+” indicates the test was significantly different from the expected value
Procedure: A carton nest (colony A) of Formosan subterranean termites was collected in Algiers, Louisiana in November 1997, and held in 250-liter cans. The cans were filled with pine as a food source, and kept at a temperature range of 24-26° C. Moistened corrugated cardboard rolls were used to retrieve termites from the cans. Once the termites migrated to the cardboard rolls, they were gently knocked from the cardboard rolls into clean rectangular plastic trays (40 cm×50 cm). Retrieved termites were isolated from debris by allowing them to cling to sheets of moistened paper towels. The average weight of each termite was 1.21 mg.
To test for effectiveness of nootkatone, 1,10-dihydronootkatone and tetrahydronootkatone in repelling termites, a bioassay was conducted using Petri dishes (5 cm diameter and 1 cm height). To ensure adequate moisture for the termites, 1 ml of a hot agar solution (1.5% in H2O) was spread on the bottom of the Petri dish. After the agar cooled, sand that was treated as described below was spread on the bottom of the Petri dish. For the treated sand, purified 1,10-dihydronootkatone or tetrahydronootkatone were dissolved in 2 ml ethanol, and then diluted to achieve final concentrations of 1, 2, 5, 12.5, 25, 50, and 100 μg/g sand. The solution was mixed with 1 g sand that had been autoclaved and cooled. The control sand was autoclaved sand with only 200 μl ethanol added. One half of the surfaces in the Petri dishes were covered with 1 g treated sand, and the other half with 1 g untreated sand.
The prepared Petri dishes were then used to evaluate the repelling activity against Formosan subterranean termites. Ten worker termites were added to each Petri dish, and the dishes were covered to eliminate light. Five replicate dishes were tested for each concentration and for the control. Termite position was recorded every 15 min during the first hour of testing by counting the number of termites observed on untreated sand. After the first hour, termite position was recorded each hour for 3 hr.
Differences between the percent of termites on untreated sand and an expected value were statistically analyzed by a Chi-Square analysis, using an expected value of 50% and a significance level of p≦0.05.

Compound: CC(C)C1CCC2CC(=O)CC(C)C2(C)C1 (stereo not drawn) [Tetrahydronootkatone, 1,4,4a,5,6,7,8,10-octahydro-6-isopropl-4,4a-dimethyl-2(1H)-naphthalenone]
- mosquito repellence ([1]; 5% solution, time periods up to 3 hr after the initial application): effective mosquito repellent
- Number of Mosquito Bites in a 2 min Period ([1]; Volunteer 1, 5 min after application): 0
- Number of Mosquito Bites in a 2 min Period ([1]; Volunteer 1, 1 hr after application): 0
- Number of Mosquito Bites in a 2 min Period ([1]; Volunteer 1, 2 hr after application): 0
- Number of Mosquito Bites in a 2 min Period ([1]; Volunteer 1, 3 hr after application): 0
- Number of Mosquito Bites in a 2 min Period ([1]; Volunteer 2, 5 min after application): 0
- Number of Mosquito Bites in a 2 min Period ([1]; Volunteer 2, 1 hr after application): 0
- Number of Mosquito Bites in a 2 min Period ([1]; Volunteer 2, 2 hr after application): 0
- Number of Mosquito Bites in a 2 min Period ([1]; Volunteer 2, 3 hr after application): 2
- repellence of biting midges [2]: fewer problems with biting midges; also recorded: effective repellent for biting midges
- percent of termites on untreated sand vs expected value of 50% (Chi-Square, p≦0.05) ([3]; 1 μg/dish, 0.25 hour): −
- percent of termites on untreated sand vs expected value of 50% (Chi-Square, p≦0.05) ([3]; 1 μg/dish, 0.5 hour): −
- percent of termites on untreated sand vs expected value of 50% (Chi-Square, p≦0.05) ([3]; 1 μg/dish, 0.75 hour): −
- percent of termites on untreated sand vs expected value of 50% (Chi-Square, p≦0.05) ([3]; 1 μg/dish, 1 hour): −
- percent of termites on untreated sand vs expected value of 50% (Chi-Square, p≦0.05) ([3]; 1 μg/dish, 2 hour): −
- percent of termites on untreated sand vs expected value of 50% (Chi-Square, p≦0.05) ([3]; 1 μg/dish, 3 hour): −
- percent of termites on untreated sand vs expected value of 50% (Chi-Square, p≦0.05) ([3]; 2 μg/dish, 0.25 hour): +
- percent of termites on untreated sand vs expected value of 50% (Chi-Square, p≦0.05) ([3]; 2 μg/dish, 0.5 hour): +
- percent of termites on untreated sand vs expected value of 50% (Chi-Square, p≦0.05) ([3]; 2 μg/dish, 0.75 hour): +
- percent of termites on untreated sand vs expected value of 50% (Chi-Square, p≦0.05) ([3]; 2 μg/dish, 1 hour): +
- percent of termites on untreated sand vs expected value of 50% (Chi-Square, p≦0.05) ([3]; 2 μg/dish, 2 hour): +
- percent of termites on untreated sand vs expected value of 50% (Chi-Square, p≦0.05) ([3]; 2 μg/dish, 3 hour): +
- percent of termites on untreated sand vs expected value of 50% (Chi-Square, p≦0.05) ([3]; 5 μg/dish, 0.25 hour): −
- percent of termites on untreated sand vs expected value of 50% (Chi-Square, p≦0.05) ([3]; 5 μg/dish, 0.5 hour): +
- percent of termites on untreated sand vs expected value of 50% (Chi-Square, p≦0.05) ([3]; 5 μg/dish, 0.75 hour): +
- percent of termites on untreated sand vs expected value of 50% (Chi-Square, p≦0.05) ([3]; 5 μg/dish, 1 hour): +
- percent of termites on untreated sand vs expected value of 50% (Chi-Square, p≦0.05) ([3]; 5 μg/dish, 2 hour): +
- percent of termites on untreated sand vs expected value of 50% (Chi-Square, p≦0.05) ([3]; 5 μg/dish, 3 hour): +
- percent of termites on untreated sand vs expected value of 50% (Chi-Square, p≦0.05) ([3]; 12.5 μg/dish, 0.25 hour): +
- percent of termites on untreated sand vs expected value of 50% (Chi-Square, p≦0.05) ([3]; 12.5 μg/dish, 0.5 hour): +
- percent of termites on untreated sand vs expected value of 50% (Chi-Square, p≦0.05) ([3]; 12.5 μg/dish, 0.75 hour): +
- percent of termites on untreated sand vs expected value of 50% (Chi-Square, p≦0.05) ([3]; 12.5 μg/dish, 1 hour): +
- percent of termites on untreated sand vs expected value of 50% (Chi-Square, p≦0.05) ([3]; 12.5 μg/dish, 2 hour): +
- percent of termites on untreated sand vs expected value of 50% (Chi-Square, p≦0.05) ([3]; 12.5 μg/dish, 3 hour): +
- percent of termites on untreated sand vs expected value of 50% (Chi-Square, p≦0.05) ([3]; 25 μg/dish, 0.25 hour): −
- percent of termites on untreated sand vs expected value of 50% (Chi-Square, p≦0.05) ([3]; 25 μg/dish, 0.5 hour): +
- percent of termites on untreated sand vs expected value of 50% (Chi-Square, p≦0.05) ([3]; 25 μg/dish, 0.75 hour): +
- percent of termites on untreated sand vs expected value of 50% (Chi-Square, p≦0.05) ([3]; 25 μg/dish, 1 hour): +
- percent of termites on untreated sand vs expected value of 50% (Chi-Square, p≦0.05) ([3]; 25 μg/dish, 2 hour): +
- percent of termites on untreated sand vs expected value of 50% (Chi-Square, p≦0.05) ([3]; 25 μg/dish, 3 hour): +
- percent of termites on untreated sand vs expected value of 50% (Chi-Square, p≦0.05) ([3]; 50 μg/dish, 0.25 hour): +
- percent of termites on untreated sand vs expected value of 50% (Chi-Square, p≦0.05) ([3]; 50 μg/dish, 0.5 hour): +
- percent of termites on untreated sand vs expected value of 50% (Chi-Square, p≦0.05) ([3]; 50 μg/dish, 0.75 hour): +
- percent of termites on untreated sand vs expected value of 50% (Chi-Square, p≦0.05) ([3]; 50 μg/dish, 1 hour): +
- percent of termites on untreated sand vs expected value of 50% (Chi-Square, p≦0.05) ([3]; 50 μg/dish, 2 hour): +
- percent of termites on untreated sand vs expected value of 50% (Chi-Square, p≦0.05) ([3]; 50 μg/dish, 3 hour): +
- percent of termites on untreated sand vs expected value of 50% (Chi-Square, p≦0.05) ([3]; 100 μg/dish, 0.25 hour): +
- percent of termites on untreated sand vs expected value of 50% (Chi-Square, p≦0.05) ([3]; 100 μg/dish, 0.5 hour): +
- percent of termites on untreated sand vs expected value of 50% (Chi-Square, p≦0.05) ([3]; 100 μg/dish, 0.75 hour): +
- percent of termites on untreated sand vs expected value of 50% (Chi-Square, p≦0.05) ([3]; 100 μg/dish, 1 hour): +
- percent of termites on untreated sand vs expected value of 50% (Chi-Square, p≦0.05) ([3]; 100 μg/dish, 2 hour): +
- percent of termites on untreated sand vs expected value of 50% (Chi-Square, p≦0.05) ([3]; 100 μg/dish, 3 hour): +
- factor by which the effective termite-repellent concentration is lower than that of nootkatone ([3]; relative to nootkatone): 50
- concentration effective as termite repellent ([3]; time periods up to 3 hr): 2 µg
